According to ChEMBL document CHEMBL5634134, “Design, synthesis, and biological evaluation of novel 4,4'-bipyridine derivatives acting as CDK9-Cyclin T1 protein-protein interaction inhibitors against triple-negative breast cancer” (Eur J Med Chem, 2023):
Calls of active or inactive are those of the source. The calls are words filed in the database; no cut-off is given here.

Key:
MDA-MB-231 [1] = assay: Antiproliferative activity against human MDA-MB-231 cells assessed as decrease in sphere size by measuring sphere diameter at 100 nM incubated for 10 days by confocal laser scanning microscopy (reference value: 508.27 micrometer); format: functional; settings: time 10 day
[2] = Toxicity in athymic BALB/c mouse implanted with mouse 4T1 cells assessed as lung tissue damage at 12.5 to 25 mg/kg, ip administered for 14 days; format: organism-based; settings: in vivo, 336 h, dose 12.5-25 mg/kg, time 14 day
MDA-MB-231 [3] = assay: Induction of apoptosis in human MDA-MB-231 cells assessed as viable cells at 37 nM incubated for 72 hrs by Annexin V-FITC/PI staining based flow cytometry analysis (reference value: 94.81 %); format: functional; settings: read-out: Activity
[4] = Toxicity in athymic BALB/c mouse implanted with mouse 4T1 cells assessed as heart tissue damage at 12.5 to 25 mg/kg, ip administered for 14 days; format: organism-based; settings: in vivo, 336 h, dose 12.5-25 mg/kg, time 14 day
MDA-MB-231 [5] = assay: Inhibition of RNA Polymerase II CTD phosphorylation at ser2 residue in human MDA-MB-231 cells at 1 uM incubated for 24 hrs by Western blotting analysis; format: cell-based
MDA-MB-231 [6] = assay: Induction of apoptosis in human MDA-MB-231 cells assessed as late apoptotic cells at 111 nM incubated for 72 hrs by Annexin V-FITC/PI staining based flow cytometry analysis (reference value: 4.04 %); format: functional
4T1 [7] = assay: Antitumor activity against mouse 4T1 cells implanted in athymic BALB/c mouse assessed as reduction in tumor volume at 12.5 to 25 mg/kg, ip administered for 14 days; format: functional, organism-based; settings: dose 12.5-25 mg/kg, time 14.0 day
MDA-MB-231 [8] = assay: Induction of apoptosis in human MDA-MB-231 cells assessed as increase in cleaved PARP-1 protein incubated for 24 hrs by Western blotting analysis; format: functional, cell-based; settings: dose 37-1000 nM
MDA-MB-231 [9] = assay: Induction of apoptosis in human MDA-MB-231 cells assessed as necrotic cells at 333 nM incubated for 72 hrs by Annexin V-FITC/PI staining based flow cytometry analysis (reference value: 0.49 %); format: functional
[10] = AUC (0 to t) in Sprague-Dawley rat at 50 mg/kg, ip measured afer 24 hrs by LC-MS/MS analysis; format: ADME, organism-based; settings: in vivo
[11] = Toxicity in athymic BALB/c mouse implanted with mouse 4T1 cells assessed as liver tissue damage at 12.5 to 25 mg/kg, ip administered for 14 days; format: organism-based; settings: in vivo, 336 h, dose 12.5-25 mg/kg, time 14 day
[12] = Toxicity in mouse assessed as death rate at 750 mg/kg, ip administered for 16 days relative to control; format: organism-based; settings: in vivo, time 16 day, read-out: Activity
[13] = Tmax in Sprague-Dawley rat at 50 mg/kg, ip measured afer 24 hrs by LC-MS/MS analysis; format: ADME, organism-based; settings: in vivo
[14] = Toxicity in mouse assessed as median lethal dose administered intraperitoneally for 16 days; settings: in vivo, route ip, time 16 day
MDA-MB-231 [15] = assay: Induction of apoptosis in human MDA-MB-231 cells assessed as late apoptotic cells at 333 nM incubated for 72 hrs by Annexin V-FITC/PI staining based flow cytometry analysis (reference value: 4.04 %); format: functional
MDA-MB-231 [16] = assay: Effect on RNA polymerase II phosphorylation at Ser2 residue in human MDA-MB-231 cells transfected with shCDK9 at 300 nM by Western blot analysis; format: functional, cell-based
[17] = molecular target: Cyclin-dependent kinase 7 (Homo sapiens) (UniProt P50613); assay: Binding affinity to CDK7 in human MDA-MB-231 cells asssesed as thermal stabilization at 1 uM incubated for 8 hrs under 45 to 65 degreeC by Western blot analysis; format: cell-based
4T1 [18] = assay: Antitumor activity against mouse 4T1 cells implanted in athymic BALB/c mouse assessed as tumor inhibition rate at 12.5 mg/kg, ip administered for 14 days relative to control; format: functional; settings: 4T1, 336 h, time 14 day
[19] = Toxicity in athymic BALB/c mouse implanted with mouse 4T1 cells assessed as body weight loss at 12.5 mg/kg, ip administered for 14 days; format: organism-based; settings: in vivo, 336 h, time 14 day
[20] = molecular target: Cyclin-dependent kinase 2 (Homo sapiens) (UniProt P24941); assay: Binding affinity to CDK2 in human MDA-MB-231 cells asssesed as thermal stabilization at 1 uM incubated for 8 hrs under 45 to 65 degreeC by Western blot analysis; format: cell-based
[21] = Toxicity in athymic BALB/c mouse implanted with mouse 4T1 cells assessed as kidney tissue damage at 12.5 to 25 mg/kg, ip administered for 14 days; format: organism-based; settings: in vivo, 336 h, dose 12.5-25 mg/kg, time 14 day
MDA-MB-231 [22] = assay: Induction of apoptosis in human MDA-MB-231 cells assessed as early apoptotic cells at 333 nM incubated for 72 hrs by Annexin V-FITC/PI staining based flow cytometry analysis (reference value: 0.66 %); format: functional
[23] = molecular target: Cyclin-dependent kinase 1 (Homo sapiens) (UniProt P06493); assay: Binding affinity to CDK1 in human MDA-MB-231 cells asssesed as thermal stabilization at 1 uM incubated for 8 hrs under 45 to 65 degreeC by Western blot analysis; format: cell-based
MDA-MB-231 [24] = assay: Effect on Mcl-1 protein expression in human MDA-MB-231 cells transfected with shCDK9 at 300 nM by Western blot analysis; format: functional, cell-based
[25] = Toxicity in athymic BALB/c mouse implanted with mouse 4T1 cells assessed as spleen tissue damage at 12.5 to 25 mg/kg, ip administered for 14 days; format: organism-based; settings: in vivo, 336 h, dose 12.5-25 mg/kg, time 14 day
4T1 [26] = assay: In vivo inhibition of RNA Pol II phosphorylation at ser2 in athymic BALB/c mouse implanted with mouse 4T1 cells at 12.5 to 25 mg/kg, ip administered once daily for 14 days by Western blot analysis; format: functional, organism-based; settings: dose 12.5-25 mg/kg, time 14.0 day
MDA-MB-231 [27] = assay: Induction of apoptosis in human MDA-MB-231 cells assessed as reduction in Bcl2 level incubated for 24 hrs by Western blot analysis; format: functional, cell-based; settings: dose 37-1000 nM
[28] = Half life in Sprague-Dawley rat at 50 mg/kg, ip measured afer 24 hrs by LC-MS/MS analysis; format: ADME, organism-based; settings: in vivo
MDA-MB-231 [29] = assay: Effect on C-Myc protein expression in human MDA-MB-231 cells transfected with shCDK9 at 300 nM by Western blot analysis; format: functional, cell-based
[30] = Toxicity in mouse assessed as increase in body weight at 62.5 to 500 mg/kg, ip administered for 16 days; format: organism-based; settings: in vivo, 384 h, dose 62.5-500 mg/kg, time 16 day
[31] = AUC (0 to infinity) in Sprague-Dawley rat at 50 mg/kg, ip measured afer 24 hrs by LC-MS/MS analysis; format: ADME, organism-based; settings: in vivo
[32] = Toxicity in athymic BALB/c mouse implanted with mouse 4T1 cells assessed as body weight loss at 25 mg/kg, ip administered for 14 days; format: organism-based; settings: in vivo, 336 h, time 14 day
MDA-MB-231 [33] = assay: Antimetastasis activity in human MDA-MB-231 cells assessed as wound closure at 0.1 uM and measured upto 48 hrs by inverted microscope analysis (reference value: 46 %); format: functional
[34] = MRT (0 to t) in Sprague-Dawley rat at 50 mg/kg, ip measured afer 24 hrs by LC-MS/MS analysis; format: ADME, organism-based; settings: in vivo
MDA-MB-231 [35] = assay: Inhibition of colony formation in human MDA-MB-231 cells assessed as reduction in colony size incubated for 10 days by crystal violet staining based analysis; format: functional, cell-based; settings: dose 12-1000 nM, time 10.0 day

Sequence of Cyclin-dependent kinase 7 (Homo sapiens) (P50613 whole entry): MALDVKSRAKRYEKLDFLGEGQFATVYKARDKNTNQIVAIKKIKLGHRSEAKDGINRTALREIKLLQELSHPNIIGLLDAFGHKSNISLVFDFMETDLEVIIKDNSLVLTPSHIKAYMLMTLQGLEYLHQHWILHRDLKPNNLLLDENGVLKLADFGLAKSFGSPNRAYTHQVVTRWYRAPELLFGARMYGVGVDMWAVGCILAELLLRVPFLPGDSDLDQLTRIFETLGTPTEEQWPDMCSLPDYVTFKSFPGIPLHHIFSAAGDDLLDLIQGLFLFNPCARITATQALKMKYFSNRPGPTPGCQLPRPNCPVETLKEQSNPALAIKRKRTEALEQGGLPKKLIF
Sequence of Cyclin-dependent kinase 1 (Homo sapiens) (P06493 whole entry, looked up): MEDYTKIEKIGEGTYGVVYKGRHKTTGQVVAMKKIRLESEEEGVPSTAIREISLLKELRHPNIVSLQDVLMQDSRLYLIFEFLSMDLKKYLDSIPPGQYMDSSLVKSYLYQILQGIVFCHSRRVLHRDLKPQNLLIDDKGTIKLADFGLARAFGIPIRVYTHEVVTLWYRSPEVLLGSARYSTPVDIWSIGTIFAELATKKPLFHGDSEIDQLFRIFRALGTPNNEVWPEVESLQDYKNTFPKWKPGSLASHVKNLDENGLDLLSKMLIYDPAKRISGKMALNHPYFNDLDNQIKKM

COc1ccc(C(=O)Nc2cc(-c3ccnc(N4CCC(O)CC4)c3)ccn2)cc1
Activity (MDA-MB-231 [1]): 429.81 um | Activity [2]: Non-Toxic | viability at 0.037 µM (MDA-MB-231 [3]): 83.6% | Activity [4]: Non-Toxic | inhibition (MDA-MB-231 [5]): Active | Activity (MDA-MB-231 [6]): 34.93% | Activity (4T1 [7]): Active | Activity (MDA-MB-231 [8]): Dose-Dependent Effect | Activity (MDA-MB-231 [9]): 0.25% | AUC(0-t) at 24 h [10]: 17000 ng·h/mL | Activity [11]: Non-Toxic | mortality at 384 h [12]: 40% | Tmax [13]: 0.5 h | LD50 at 384 h [14]: 750 mg/kg | Activity (MDA-MB-231 [15]): 48.6% | Activity (MDA-MB-231 [16]): inactive | Activity [17]: inactive | inhibition in vivo at 12.5 mg/kg (4T1 [18]): 63.1% | Activity [19]: Non-Toxic | Activity [20]: inactive | Activity [21]: Non-Toxic | Activity (MDA-MB-231 [22]): 20.4% | Activity [23]: inactive | Activity (MDA-MB-231 [24]): inactive | Activity [25]: Non-Toxic | inhibition (4T1 [26]): Active | Activity (MDA-MB-231 [27]): Dose-Dependent Effect | half-life [28]: 1.67 h | Activity (MDA-MB-231 [29]): inactive | Activity [30]: Non-Toxic | AUC(0-inf) [31]: 17000 ng·h/mL | Activity [32]: Toxic | Activity (MDA-MB-231 [33]): 18% | MRT last at 24 h [34]: 1.26 h | inhibition (MDA-MB-231 [35]): Dose-Dependent Effect
